The text below walks through data of ChEMBL document CHEMBL3301361, “Experimental in vitro DMPK and physicochemical data on a set of publicly disclosed compounds”.

Data set [1] in a line: in vitro. As to conditions: human, hepatocytes.
A short description of data set [2]: physchem. As to conditions: octan-1-ol/water.
A short description of data set [3]: in vitro. To be noted: human, plasma.
Data set [4] in a line: in vitro. As to conditions: SD, HW or BN, rat, plasma.
A short description of data set [5]: in vitro. To be noted: human.
The nature of data set [6]: in vitro. To be noted: hepatocytes.
The nature of data set [7]: physchem. To be noted: pH 7.4 buffer.

In brackets after ≈: the same amount, converted by molar mass.

Consider `NC1(c2ccc(-c3c(-c4ccccc4)ccn4ncnc34)cc2)CCC1`, for which the hepatocyte CLint (in general, the rate of metabolic loss divided by the concentration) in data set [1] is below 3 µL/min/1e6 cells.

For the molecule `Cn1cnc2c(-c3ccc(C4(N)CCC4)cc3)c(-c3ccccc3)ccc21`, the hepatocyte CLint in data set [1] came to 3.31 µL/min/1e6 cells.

`Cc1ccc(-c2cccc(-c3nn[nH]n3)c2)cc1`: the hepatocyte CLint in data set [1] was 52.5 µL/min/1e6 cells.

Regarding `O=C1NC(=O)C(=CC=Cc2ccccc2)S1`, the hepatocyte CLint in data set [1] is 10.5 µL/min/1e6 cells.

Regarding `C[C@@H]1CN(Cc2nnc(-c3cc(-c4cccc5[nH]ccc45)cc4[nH]ncc34)o2)C[C@H](C)O1`, the pH-dependent lipophilicity (logD) – broadly, the decadic logarithm of the distribution of all forms, ionised or not, between an organic phase and buffer at a given pH – in data set [2] (pH 7.4, LogD7.4) came out at 4.01. Moreover, the fraction unbound (usually free concentration divided by total concentration) at 5 h in data set [3] (PPB) was 0.0191; in data set [4] it was 0.0313. For the same molecule, the intrinsic metabolic clearance (microsomal CLint) (as a rule, the capacity of the preparation to metabolise the compound, expressed as a volume cleared per time) in data set [5] (liver microsomes) was determined as 107 µL/min/mg. The same molecule gave an intrinsic metabolic clearance (hepatocyte CLint) in data set [6] of 55 µL/min/1e6 cells.

`Cc1c(Cl)cccc1S(=O)(=O)N1CCC[C@H](C(=O)NC2CCCCC2)C1`: the hepatocyte CLint in data set [1] was 18.6 µL/min/1e6 cells.

In the case of `C[C@H]1COCCN1c1nc(N2CCOC[C@@H]2C)c2ccc(-c3ccc4nc[nH]c(=O)c4c3)nc2n1`, the hepatocyte CLint in data set [1] is above 150 µL/min/1e6 cells.

`CC(C)(C)NC(=O)NCCN1CCC(CO)(CNC(=O)c2cc(Cl)cc(Cl)c2)CC1`: in data set [1], the hepatocyte CLint amounted to 7.08 µL/min/1e6 cells.

Molecule `Cc1ccc(-c2cc(C(F)(F)F)nn2-c2ccc(S(C)(=O)=O)cc2)cc1` had a hepatocyte CLint in data set [1] of 17.4 µL/min/1e6 cells.

As for `O=C(O)c1ccc(-n2nc(C(F)(F)F)cc2-c2ccc(C(F)(F)F)cc2)cc1`, in data set [1], the hepatocyte CLint worked out at 9.33 µL/min/1e6 cells.

The molecule `NS(=O)(=O)c1ccc(-n2nc(C(F)(F)F)cc2-c2ccc(C(F)(F)F)cc2)cc1` yielded a hepatocyte CLint in data set [1] of 18.2 µL/min/1e6 cells.

Turning to `COc1ccc(/C=C2\NC(=O)NC2=O)cc1`, the hepatocyte CLint in data set [1] is 39.8 µL/min/1e6 cells.

As for `Clc1ccc(COc2ccc(Br)cc2CN2CCOCC2)cc1`, in data set [1], the hepatocyte CLint was found to be 55 µL/min/1e6 cells.

Molecule `Cc1ccc(-c2cc(C(F)(F)F)nn2-c2ccc(C(=O)O)cc2)cc1` showed a hepatocyte CLint in data set [1] of 10.7 µL/min/1e6 cells.

The molecule `Cc1ccc(-c2cc(C(F)(F)F)nn2-c2ccc([S+](C)[O-])cc2)cc1` (stereo not given) registered a hepatocyte CLint in data set [1] of 14.8 µL/min/1e6 cells.

`COc1ccccc1SC[C@@H](C)CN[C@@H]1COc2ccccc2SC1` showed an intrinsic metabolic clearance (hepatocyte CLint) in data set [1] of 51.3 µL/min/1e6 cells.

`O=C(NCC1(O)CCCCCC1)c1cc(-c2ccccc2C(=O)O)ccc1Cl` yielded a log distribution coefficient (logD) in data set [2] (pH 7.4, LogD7.4) of -0.34. Also, the unbound share (fraction unbound) at 5 h was 0.089 in data set [3] (PPB) and 0.0909 in data set [4]. In data set [5] (liver microsomes), this molecule registered an intrinsic clearance (microsomal CLint) below 3 µL/min/mg. This molecule gave a hepatocyte CLint in data set [6] of 12.5 µL/min/1e6 cells.

In the case of `Cc1ccc2nc(C(=O)O)[nH]c2c1`, the hepatocyte CLint in data set [1] came out at 9.77 µL/min/1e6 cells.

`C[C@]12CC[C@H](O)CC1=CCC1C2CC[C@]2(C)C(n3cnc4ccccc43)=CCC12` (stereo not given in full): the intrinsic metabolic clearance (hepatocyte CLint) in data set [1] was 34.7 µL/min/1e6 cells.

In turn, `Nc1ccc2c(c1)Cc1cc(N)ccc1-2` came in with an intrinsic metabolic clearance (hepatocyte CLint) in data set [1] of 61.7 µL/min/1e6 cells.

Molecule `COc1ccc([C@]2(C#N)CC[C@@H](C(=O)O)CC2)cc1OC1CCCC1` [CILOMILAST] displayed a log distribution coefficient (logD) in data set [2] (pH 7.4, LogD7.4) of 0.76. Further, the fraction unbound at 5 h in data set [3] (PPB) was 0.0116; in data set [4], 0.0606. The molecule further returned an intrinsic metabolic clearance (microsomal CLint) in data set [5] (microsomes) of 13 µL/min/mg. Moreover, the hepatocyte CLint in data set [6] is 28 µL/min/1e6 cells.

With `Cc1c[nH]c(-c2cnc(NCCNc3ccc(C#N)cn3)nc2-c2ccc(Cl)cc2Cl)n1` [LADUVIGLUSIB], the log distribution coefficient (logD) in data set [2] (pH 7.4, LogD7.4) came out at 3.86. In addition, the solubility (thermodynamic) – broadly, solubility found after equilibrating the solid with the medium – in data set [7] was found to be 0.4 µM (≈ 0.186 µg/mL). Besides, the free fraction (fraction unbound) at 5 h in data set [3] (PPB) is 0.0187; in data set [4] it was 0.0447. The molecule further showed a microsomal CLint in data set [5] (microsomes) of 96 µL/min/mg. The molecule further came in with a hepatocyte CLint in data set [6] of 108 µL/min/1e6 cells.

Regarding `CNCCC=C1c2ccccc2CCc2ccccc21` [NORTRIPTYLINE], the logD in data set [2] (pH 7.4, LogD7.4) is 1.58. Moreover, the unbound share (fraction unbound) at 5 h in data set [3] (PPB) and in data set [4] was 0.132 in each case. This molecule registered an intrinsic metabolic clearance (microsomal CLint) in data set [5] (microsomes) below 3 µL/min/mg. Also, in data set [6], the hepatocyte CLint was 144 µL/min/1e6 cells.

Consider `COc1ccc(CC(C)(C)NC[C@H](O)c2cc(O)cc3c2OCC(=O)N3)cc1` [OLODATEROL], for which the logD in data set [2] (pH 7.4, LogD7.4) is 0.79. Besides, the fraction unbound at 5 h in data set [3] (PPB) was 0.409; in data set [4] it was 0.443. The molecule further showed a microsomal CLint in data set [5] (liver microsomes) of 14 µL/min/mg. The molecule further displayed a hepatocyte CLint in data set [6] of 14 µL/min/1e6 cells.

In data set [2] (pH 7.4, LogD7.4), `CC(C)(Cc1cccc(CC(=O)NCc2cccc(-c3ccc(O)cc3)c2)c1)NC[C@H](O)c1ccc(O)c(NS(C)(=O)=O)c1` [PF-00610355] returned a log distribution coefficient (logD) of 1.91. Further, in data set [7], the solubility (thermodynamic) was 57.5 µM (≈ 35.5 µg/mL). Further, the fraction unbound at 5 h in data set [3] (PPB) is 0.0053; in data set [4], 0.0818. The molecule further displayed an intrinsic clearance (microsomal CLint) in data set [5] (liver microsomes) of 99 µL/min/mg. The hepatocyte CLint in data set [6] amounted to 37 µL/min/1e6 cells.

`Cc1cccc([C@H](C)c2c[nH]c(=S)[nH]2)c1C` [REZATOMIDINE] yielded a logD in data set [2] (pH 7.4) of 2.9. In addition, the fraction unbound at 5 h in data set [3] was 0.17; in data set [4] it was 0.19. In data set [5] (microsomes), this molecule had a microsomal CLint of 24.6 µL/min/mg. Besides, the hepatocyte CLint in data set [6] is 25.7 µL/min/1e6 cells.
